Patent publication US20180362559A1, “BONE ACTIVE NITROGEN-CONTAINING BISPHOSPHONATES WITH A NEAR INFRARED FLUORESCENT LABEL” (University of Southern California, priority 2015, published 2018)

Key:
osteoclast (OC) = osteoclast (OC) inhibitory activity in vitro using mouse bone marrow cells (osteoclast culture); type: cell-based; conditions: for activity in osteoclast culture assay: in vitro, qualitative ranking; for OC numbers: mouse bone marrow cells, vehicle 239+/−17
Protocol: To determine if these AF-BP structural modifications improved the osteoclast (OC) inhibitory activity, these modifications were tested in vitro using mouse bone marrow cells.

bone slice resorption = bone slice resorption assay; type: cell-based; conditions: in vitro, qualitative ranking

For O=C(CCNC(=O)c1ccc(-c2c3ccc(=O)cc-3oc3cc(O)ccc23)c(C(=O)O)c1)NCC(O)C[n+]1cccc(CC(O)(P(=O)(O)O)P(=O)(O)O)c1 (centres unmarked) [Compound 13, 1-(3-(3-(3-carboxy-4-(6-hydroxy-1-oxo-3H-xanthen-9-yl)benzamido)propanamido)-2-hydroxypropyl)-3-(2-hydroxy-2,2-diphosphonoethyl)pyridin-1-ium], the “activity in osteoclast culture assay” value (osteoclast (OC)) was “most active” and the “activity in bone slice resorption assay” value (bone slice resorption) was “most active”.
With O=C(CCNC(=O)c1ccc(C(=O)O)c(-c2c3ccc(=O)cc-3oc3cc(O)ccc23)c1)NCC(O)C[n+]1cccc(CC(O)(P(=O)(O)O)P(=O)(O)O)c1 (centres unmarked) [Compound 14, 1-(3-(3-(4-carboxy-3-(6-hydroxy-3-oxo-3H-xanthen-9-yl)benzamido)propanamido)-2-hydroxypropyl)-3-(2-hydroxy-2,2-diphosphonoethyl)pyridin-1-ium] the “activity in osteoclast culture assay” value (osteoclast (OC)) was “most active” and the “activity in bone slice resorption assay” value (bone slice resorption) was “most active”.
In the case of O=C(CCOCCOCCOCCOCCNC(=O)c1ccc(-c2c3ccc(=O)cc-3oc3cc(O)ccc23)c(C(=O)O)c1)NCC(O)C[n+]1cccc(CC(O)(P(=O)(O)O)P(=O)(O)O)c1 (centres unmarked) [Compound 21, 1-(1-(3-carboxy-4-(6-hydroxy-3-oxo-3H-xanthen-9-yl)phenyl)-20-hydroxy-1,17-dioxo-5,8,11,14-tetraoxa-2,18-diazahenicosan-21-yl)-3-(2-hydroxy-2,2-diphosphonoethyl)pyridin-1-ium], the “activity in osteoclast culture assay” value (osteoclast (OC)) was “most active” and the “activity in bone slice resorption assay” value (bone slice resorption) was “most active”.
O=C(CCOCCOCCOCCOCCNC(=O)c1ccc(C(=O)O)c(-c2c3ccc(=O)cc-3oc3cc(O)ccc23)c1)NCC(O)C[n+]1cccc(CC(O)(P(=O)(O)O)P(=O)(O)O)c1 (centres unmarked) [Compound 22] was tested, and the “activity in osteoclast culture assay” value (osteoclast (OC)) was “most active” and the “activity in bone slice resorption assay” value (bone slice resorption) was “most active”.
In the case of O=P(O)(O)C(O)(Cc1cccnc1)P(=O)(O)O [RIS, (1-hydroxy-2-pyridin-3-ylethane-1,1-diyl)bis(phosphonic acid), reference compound], the OC numbers (osteoclast (OC); 0.1 uM) was 214+/−37, the OC numbers (osteoclast (OC); 1 uM) was 220+/−28 and the OC numbers (osteoclast (OC); 10 uM) was 143+/−21.
